From patent US11179348B2, “Combination comprising pterostilbene for the treatment of cancer” (FUNDACIÓN UNIVERSIDAD CATÓLICA DE VALENCIA SAN VICENTE …, priority 2015, dated 2021)

What was measured:
HT-29 human colon cancer = conditions: 20 μM Pter, 24 h, in vitro; cited from earlier work
HT-29 cells = assay: GSH levels and glutathione- and oxidative stress-related enzyme activities in HT-29 cells growing in vivo; parameters: species or system human; conditions: HT-29, in vivo Pter, day 21
Description: (§1) To measure enzyme activity, isolated tumor cells were homogenized in 0.1 M phosphate buffer (pH 7.2) at 4° C. GCL and GSS activities were measured as described previously (Obrador, E. et al. Hepatology 35, 74-81 (2002)). GPX (selenium dependent) activity was measured as described by Flohé and Gunzler (Flohe, L. & Gunzler, W. A. Methods Enzymol 105, 114-121 (1984)) using H2O2 as a substrate. GSR activity was determined as described by Akerboom and Sies (Akerboom, T. P. et al, Bull Eur Physiopathol Respir 17 Suppl, 221-227 (1981)). GGT activity was measured as described previously (Obrador, E. et al. Hepatology 35, 74-81 (2002)). GST activity was measured using an assay kit from Sigma. TXNRD activity, defined by the concentration of sodium-lipoate (disulfide) reduced to dehydrolipoate (dithiol) per milligram protein, was measured as previously described (Javvadi, P. et al. Cancer Res 70, 1941-1950 (2010)). SOD activity was measured as described by Flohé and Otting (Flohe, L. & Otting, F. Methods Enzymol 105, 93-104 (1984).) using 2 mM cyanide in the assay medium to distinguish mangano-type enzyme (SOD2) from the cuprozinc type (SOD1). CAT activity was analyzed as described by Aebi (Aebi, H. Methods Enzymol 105, 121-126 (1984)). NOX activity was measured by chemiluminescence following the methodology of Wind et al. (Wind, S. et al. Comparative pharmacology of chemically distinct NADPH oxidase inhibitors. Br J Pharmacol 161, 885-898 (2010)). Protein concentration was determined with the Pierce BCA protein assay (Fisher Scientific, Waltham, Mass.).
(§2) GSH, GSSG, NADP^+ and NADPH Determination.
(§3) GSH and GSSG were determined, following procedures previously described (Obrador, E. et al. PLoS One 9, e96466 (2014)), by LC/MS using the same equipment described above for pterostilbene determination. Cell processing was performed according to published methodology, where rapid N-ethylmaleimide derivatization was used to prevent GSH auto-oxidation (Asensi, M. et al. Anal Biochem 217, 323-328 (1994)). NADP^+ and NADPH were quantitated using an assay kit from Sigma (St. Louis, Mo.).
(§4) Isolation of Tumor Cells from Mouse Xenografts Using Enzymatic Digestion and a double Ficoll gradient.
(§5) To maximize the amount of isolated cells, avoiding the use of RFP-transfected cells and subsequent laser microdissection, an alternative methodology was set up. To maximize cell yield and viability the following combination of enzymes was used: collagenase III (200 U/ml; Sigma-Aldrich), DNase I (200 U/ml; Sigma-Aldrich) and trypsin (5 mg/ml; Invitrogen), and a non-enzymatic dissociation buffer (NEDB, Invitrogen). Briefly, mice were killed, and tumors were removed (avoiding skin, muscle and fat) into cold culture media and processed immediately. The tumors were minced into 1-3 mm fragments, which were then incubated with the dissociation solution (see above) for 30 min at 37° C. The tumor fragments were mixed up and down every 10 min using a […] micropipette with a tip cut to a diameter adapted to tissue fragment size. After each incubation period, the fragments were filtered through a […] nylon mesh cell strainer (BD Biosciences, San Diego, Calif., USA). The released cells were centrifuged at 1200 r.p.m. for 2 min and stored in cold CO2-independent medium with 30% FCS at […]. Fresh dissociation solution was added to the remaining tissue fragments for 30 min. Dissociation was stopped when no additional cells were released. The fragments were pushed through a sieve and all cells from all incubation periods were pooled and counted.
(§6) The dissociated cells were layered onto a double Ficoll gradient (Histopaque; Sigma-Aldrich; densities 1.077 and 1.119) and spun at 700 g for 30 min at room temperature. Cells removed from both interfaces were pooled and washed two times in CO2-independent medium and stored at 4° C. Debris and red blood cell elimination was improved with the dual-density gradient. […]

[1] = test system: HT-29 colorectal carcinoma; assay: In vivo growth of HT-29 colorectal cancer xenografts; parameters: species or system human; conditions: HT-29, day 21
PC-3 cells = assay: GSH levels and glutathione- and oxidative stress-related enzyme activities in PC-3 cells growing in vivo; parameters: species or system human; conditions: PC-3, in vivo Pter, day 21
Description: as §1, §2, §3, §4, §5, §6

human melanoma cells = assay: Effect of pterostilbene on melanoma cell growth and viability in vitro; format: cell-based
MelJuso melanoma cells = assay: Nrf2- and redox state-related enzyme activities and metabolites in MelJuso cells growing in vivo; parameters: species or system human; conditions: in vivo +Pter, day 35
Description: Transfection of the Red Fluorescence Protein.
First the pDsRed-2 vector (Clontech Laboratories Inc., Palo Alto, Calif.) was used, as previously described for A375 melanoma cells (Mena, S. et al. J Transl Med 10, 8 (2012)), to engineer A2058, MeWo and MelJuso melanoma clones stably expressing the RFP. Isolation of A2058-RFP, MeWo-RFP or MelJuso-RFP cells from the growing xenografts was performed by laser microdissection and high-performance cell sorting as previously described in detail (Mena, S. et al. J Transl Med 10, 8 (2012)).
as §1
Measurement of H2O2 and O2^⋅−.
Quantitative measurement of H2O2 and flow cytometry determination of O2^⋅− generation were performed as previously described (Benlloch, M. et al. J Biol Chem 281, 69-79 (2006)).
as §2, §3

For `COc1cc(/C=C/c2ccc(O)cc2)cc(OC)c1` [Pter, trans-3,5-dimethoxy-4′-hydroxystilbene], the “decrease in tumor cell viability” value (HT-29 human colon cancer) is listed as ~10%, the CAT (HT-29 cells) is listed as 0.3 ± 0.1 mU/10^6 cells and the GCL (HT-29 cells) is listed as 57 ± 17 mU/10^6 cells. For the same compound, the GSH (HT-29 cells) was 8 ± 2 nmol/10^6 cells, the GSS (HT-29 cells) was 6.5 ± 1.7 mU/10^6 cells and the GSSG (HT-29 cells) was 0.05 ± 0.02 nmol/10^6 cells. For the same compound, the SOD1 (HT-29 cells) was 0.2 ± 0.1 U/10^6 cells, the SOD2 (HT-29 cells) was 0.02 ± 0.01 U/10^6 cells and the Tumor vol. [1] was 758 ± 214 mm^3. For the same compound, the CAT (PC-3 cells) was 0.3 ± 0.1 mU/10^6 cells, the GCL (PC-3 cells) was 27 ± 9 mU/10^6 cells and the GSH (PC-3 cells) was 2.4 ± 1.1 nmol/10^6 cells. For the same compound, the GSS (PC-3 cells) was 2.7 ± 0.7 mU/10^6 cells, the GSSG (PC-3 cells) was 0.05 ± 0.02 nmol/10^6 cells and the SOD1 (PC-3 cells) was 0.05 ± 0.01 U/10^6 cells. The SOD2 (PC-3 cells) was 0.01 ± 0.005 U/10^6 cells, the “pterostilbene levels in culture medium during incubation” value (human melanoma cells; human melanoma cells, 60 min incubation) was “remained unchanged” and the “melanoma cell proliferation and viability in vitro” value (human melanoma cells; pterostilbene 15 μM, 60 min each 24 h) was “nor tumor cell proliferation neither viability were significantly affected”. For the same compound, the CAT (MelJuso melanoma cells) was 1.1 ± 0.3 mU/10^6 cells, the G6PDH (MelJuso melanoma cells) was 366 ± 63 mU/10^6 cells and the GCL (MelJuso melanoma cells) was 49 ± 12 mU/10^6 cells. For the same compound, the GGT (MelJuso melanoma cells) was 15.9 ± 3.5 mU/10^6 cells, the GPX (MelJuso melanoma cells) was 2.1 ± 0.5 mU/10^6 cells and the GSH (MelJuso melanoma cells) was 10.8 ± 2.9 nmol/10^6 cells. It also gave a GSH/GSSG (MelJuso melanoma cells) of 108 ± 17, a GSR (MelJuso melanoma cells) of 5.1 ± 1.0 mU/10^6 cells and a GSS (MelJuso melanoma cells) of 7.8 ± 1.5 mU/10^6 cells. For the same compound, the GSSG (MelJuso melanoma cells) was 0.1 ± 0.04 nmol/10^6 cells, the GST (MelJuso melanoma cells) was 4.7 ± 1.3 mU/10^6 cells and the H2O2 (MelJuso melanoma cells) was 0.8 ± 0.2 nmol/10^6 cells × min. For the same compound, the IDH (MelJuso melanoma cells) was 1.5 ± 0.4 U/10^6 cells, the ME (MelJuso melanoma cells) was 25 ± 7 mU/10^6 cells and the NADPH (MelJuso melanoma cells) was 0.05 ± 0.02 nmol/mg prot. The “NADPH/NADP^+” value (MelJuso melanoma cells) was 1.7 ± 0.3, the “NADP^+” value (MelJuso melanoma cells) was 0.03 ± 0.01 nmol/mg prot and the NOX (MelJuso melanoma cells) was 142 ± 37 R.L.U./10^6 cells. The “O2^−” value (MelJuso melanoma cells) was 5.0 ± 1.3 ΔFL1, a.u, the SOD1 (MelJuso melanoma cells) was 0.4 ± 0.2 U/10^6 cells and the SOD2 (MelJuso melanoma cells) was 0.1 ± 0.05 U/10^6 cells. The TXN (MelJuso melanoma cells) was 0.3 ± 0.1 μg/10^6 cells and the TXNRD (MelJuso melanoma cells) was 0.6 ± 0.1 U/10^6 cells.
